Earlier results, collected in patent US20110236503A1, “Topical Skincare Composition” (COSMALABS INTERNATIONAL, LLC, priority 2010, published 2011).

Conditions: topical composition having 5% benzoyl peroxide vs erythromycin and clindamycin formulations

O=C(OOC(=O)c1ccccc1)c1ccccc1 [benzoyl peroxide, Benzoyl peroxide]
effectiveness for acne compared with other topical antimicrobials: at least as effective for acne as erythromycin and clindamycin formulations
